Test results as given in patent publication US20240101576A1, “HETEROCYCLIC INHIBITORS OF EGFR AND/OR HER2, FOR USE IN THE TREATMENT OF CANCER” (Scorpion Therapeutics, Inc., priority 2020, published 2024).
pIC50: −log10 of the molar value.

How the values were obtained:
Type in all cases: cell-based
EGFR L858R (Ba/F3 cells) [1] = target: T1, EGFR L858R (Ba/F3 cells) (Homo sapiens, UniProt P00533, L858R); experiment: Inhibitor activity on EGFR phosphorylation (pEGFR AlphaLISA, 2 h), Ba/F3 EGFR L858R
T1 construct: expressed in transfected cells; host or cells: Ba/F3 (murine pro-B cells), retroviral transduction, puromycin selection, IL3-independent pool
Excerpt: (§1) Example B. Inhibitor Activity on EGFR phosphorylation (pEGFR)
(§2) EGFR mutant Ba/F3 cells were generated by transduction with retrovirus containing vectors expressing EGFR L858R, EGFR exon 19del, EGFR L858R/C797S, EGFR exon 20 NPG Ins D770_N771, EGFR exon 20 ASV Ins V769_D770, or EGFR exon 20 SVD Ins D770_N771 genes along with a puromycin selection marker. Transduced cells are selected with puromycin for 7 days and are then be transferred into culture media without Interleukin 3 (IL3). Surviving cells are confirmed to express EGFR by Western blot and maintained as a pool. CUTO14 cells were obtained from Dr. Robert C. Doebele at the University of Colorado. The IC50 date are included in Table 6 and Table 7.
(§3) 1.1 Cells are harvested from flask into cell culture medium and the cell number counted.
(§4) 1.2 Cells are diluted with culture medium to the desired density and 40 μL of cell suspension is added into each well of 384-well cell culture plate and the seeding density is 50K cells/well (Ba/F3) or 12.5K cells/well (CUTO14).
(§5) 2 Compound Preparation and Treatment
(§6) 2.1 Test compounds are dissolved to 10 mM in a DMSO stock solution. 45 μL of stock solution is transferred to a 384 polypropylene plate (pp-plate). Perform 3-fold, 10-point dilution via transferring 15 μL compound into 30 μL DMSO using a TECAN (EVO200) liquid handler.
(§7) 2.2 Spin plates at room temperature at 1,000 RPM for 1 minute.
(§8) 2.3 Transfer 5 nL of diluted compound from compound source plate into the cell plate.
(§9) 2.4 After compound treatment for 2 hours, perform pEGFR detection by AlphaLISA for compound treatment plates as described in “Detection” section.
(§10) 3 Detection by pEGFR AlphaLISA (Perkin-Elmer)
(§11) 3.1 Plates are removed from incubators and equilibrated at room temperature for 10 minutes, and media was removed
(§12) 3.2 10 μL of lysis buffer is added and plates shaken at 600 rpm for 1 hr.
(§13) 3.3 Prepare acceptor mix just before use and dispense 5 μL of acceptor mix to all the wells. Shake 350 rpm for Ihr in the dark
(§14) 3.4 Prepare donor mix under low light conditions prior to use. Dispense 5 μL of donor mix to all the wells. Mix well on the shaker, seal and wrap in aluminum foil and incubate 1.5 hrs at room temperature in the dark
(§15) 3.5 Transfer 18.5 μL mixture to OptiPlate 384, and read using an Envision. The IC50 date were included in Table 6 and Table 7.

[2] = target: T2, EGFR L858R/C797S (Ba/F3 cells) (Homo sapiens, UniProt P00533, C797S/L858R); experiment: Inhibitor activity on EGFR phosphorylation (pEGFR AlphaLISA, 2 h), Ba/F3 EGFR L858R/C797S
T2 construct: expressed in transfected cells; host or cells: Ba/F3 (murine pro-B cells), retroviral transduction, puromycin selection, IL3-independent pool
Excerpt: as §1, §2, §3, §4, §5, §6, §7, §8, §9, §10, §11, §12, §13, §14, §15

[3] = target: T3, EGFR exon 19del (Ba/F3 cells) (Homo sapiens, UniProt P00533); experiment: Inhibitor activity on EGFR-dependent cell growth (CellTiter-Glo, 72 h), Ba/F3 EGFR exon 19del; settings: Ba/F3 EGFR exon 19del cell growth, read-out: BaF3 Del19 IC50
How it was run: (§16)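 Steps: seed Ba/F3 EGFR-mutant pools (800 cells/well FQEA and exon 19del; 600 L858R/C797S; 400 L858R). Add 120 nL of serially diluted compound and incubate 72 h. Equilibrate to room temperature, add CellTiter-Glo and read after 30 min. Fit IC50.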

[4] = target: T3, EGFR exon 19del (Ba/F3 cells); experiment: Inhibitor activity on EGFR phosphorylation (pEGFR AlphaLISA, 2 h), Ba/F3 EGFR exon 19del; settings: read-out: Del19 IC50 (pEGFR)
Excerpt: as §1, §2, §3, §4, §5, §6, §7, §8, §9, §10, §11, §12, §13, §14, §15

EGFR WT (Ba/F3 cells) = target: T4, EGFR WT (Ba/F3 cells) (Homo sapiens, UniProt P00533); experiment: Inhibitor activity on EGFR-dependent cell growth (CellTiter-Glo, 72 h), Ba/F3 EGFR WT; settings: read-out: BaF3 WT IC50
T4 construct: expressed in transfected cells; host or cells: Ba/F3 (murine pro-B cells), retroviral transduction, puromycin selection, maintained with EGF
How it was run: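 This growth assay used Ba/F3 cells that depend on wild-type EGFR and are kept in EGF without IL3. Compounds were made up as 10 mM DMSO stocks and diluted 3-fold over 10 points. 120 nL went onto 600 cells/well. After 72 hours, 40 μL CellTiter-Glo was added and luminescence read on EnVision after 30 min.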

[5] = target: T5, EGFR exon 20 ASV Ins V769_D770 (Ba/F3 cells) (Homo sapiens, UniProt P00533, INS769ASV); experiment: Inhibitor activity on EGFR-dependent cell growth (CellTiter-Glo, 72 h), Ba/F3 EGFR exon 20 ASV Ins; settings: read-out: BaF3 ASV IC50
T5 construct: expressed in transfected cells; host or cells: Ba/F3 (murine pro-B cells), retroviral transduction, puromycin selection, IL3-independent pool
How it was run: (§17)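 IC50s derive from a sigmoidal dose–response fit of CellTiter-Glo signal. The signal was normalised between […]-treated cells and cell-free medium. Ba/F3 mutant-EGFR cells, seeded at 400–800/well depending on the line, had 72 h of exposure to a 10-point, 3-fold compound series.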

[6] = target: T2, EGFR L858R/C797S (Ba/F3 cells); experiment: Inhibitor activity on EGFR-dependent cell growth (CellTiter-Glo, 72 h), Ba/F3 EGFR L858R/C797S; settings: read-out: BaF3 L858R/C797S IC50
Excerpt: Example A. Inhibitor Activity on EGFR-Dependent Cell Growth
Cell lines are generated by transducing Ba/F3 cells with retroviruses containing vectors with EGFR WT, EGFR L858R, EGFR exon 19del, EGFR L858R/C797S, EGFR exon 20 NPG Ins D770_N771, EGFR exon 20 ASV Ins V769_D770, EGFR exon 20 SVD Ins D770_N771, or EGFR exon 20 FQEA Ins A763_V764 genes and a puromycin selection marker. Transduced cells are selected with puromycin for 7 days and are then be transferred into culture media without Interleukin 3 (IL3). EGFR WT cells are maintained with supplemental EGF. Surviving cells are confirmed to express EGFR by Western blot and maintained as a pool. The IC50 date were included in Table 6 and Table 7.
as §3
1.2 Cells are diluted with culture medium to the desired density and 40 μL of cell suspension is added into each well of 384-well cell culture plate and the seeding density is 800 (FQEA, exon 19del), 600 (WT, NPG, L858R/C797S), or 400 (ASV, SVD, L858R) cells/well.
as §5, §6, §7
2.3 Transfer 120 nL of diluted compound from compound source plate into the cell plate.
2.4 After compound treatment for 72 hours, perform CTG detection for compound treatment plates as described in “Detection” section.
3.1 Plates are removed from incubators and equilibrated at room temperature for 15 minutes.
3.2 Thaw the CellTiter Glo reagents and allow to equilibrate to room temperature before the experiment.
3.3 Add 40 μL of CellTiter-Glo reagent into each well (at 1:1 to culture medium). Then place the plates at room temperature for 30 min followed by reading on EnVision.
4.1 Inhibition activity is calculated following the formula below:
% Inhibition=100×(LumHC−LumSample)/(LumHC−LumLC) • where HC is obtained from cells treated with 0.1% DMSO only; and LC is obtained from culture medium only.
4.2 2. Calculate the IC50 by fitting the Curve using Xlfit (v5.3.1.3), equation 201.
Y=Bottom+(Top−Bottom)/(1+10^((Log IC50−X)*HillSlope))

[7] = target: T6, EGFR exon 20 SVD Ins D770_N771 (Ba/F3 cells) (Homo sapiens, UniProt P00533, INS770SVD); experiment: Inhibitor activity on EGFR-dependent cell growth (CellTiter-Glo, 72 h), Ba/F3 EGFR exon 20 SVD Ins; settings: read-out: BaF3 SVD IC50
T6 construct: expressed in transfected cells; host or cells: Ba/F3 (murine pro-B cells), retroviral transduction, puromycin selection, IL3-independent pool
How it was run: as §17

[8] = target: T7, EGFR exon 20 FQEA Ins A763_V764 (Ba/F3 cells) (Homo sapiens, UniProt P00533, INS763FQEA); experiment: Inhibitor activity on EGFR-dependent cell growth (CellTiter-Glo, 72 h), Ba/F3 EGFR exon 20 FQEA Ins; settings: read-out: BaF3 FQEA IC50
T7 construct: expressed in transfected cells; host or cells: Ba/F3 (murine pro-B cells), retroviral transduction, puromycin selection, IL3-independent pool
How it was run: as §16

EGFR L858R (Ba/F3 cells) [9] = target: T1, EGFR L858R (Ba/F3 cells); experiment: Inhibitor activity on EGFR-dependent cell growth (CellTiter-Glo, 72 h), Ba/F3 EGFR L858R; settings: read-out: BaF3 L858R IC50
How it was run: as §16

EGFR (CUTO14 cells) = EGFR (CUTO14 cells) (Homo sapiens, UniProt P00533); experiment: Inhibitor activity on EGFR phosphorylation (pEGFR AlphaLISA, 2 h), CUTO14 cells
Excerpt: as §1, §2, §3, §4, §5, §6, §7, §8, §9, §10, §11, §12, §13, §14, §15

[10] = target: T8, EGFR exon 20 NPG Ins D770_N771 (Ba/F3 cells) (Homo sapiens, UniProt P00533, INS770NPG); experiment: Inhibitor activity on EGFR-dependent cell growth (CellTiter-Glo, 72 h), Ba/F3 EGFR exon 20 NPG Ins; settings: read-out: BaF3 NPG IC50
T8 construct: expressed in transfected cells; host or cells: Ba/F3 (murine pro-B cells), retroviral transduction, puromycin selection, IL3-independent pool
How it was run: as §17

Measured: pIC50

T5 sequence (P00533 with tags, fused parts or gaps INS769ASV): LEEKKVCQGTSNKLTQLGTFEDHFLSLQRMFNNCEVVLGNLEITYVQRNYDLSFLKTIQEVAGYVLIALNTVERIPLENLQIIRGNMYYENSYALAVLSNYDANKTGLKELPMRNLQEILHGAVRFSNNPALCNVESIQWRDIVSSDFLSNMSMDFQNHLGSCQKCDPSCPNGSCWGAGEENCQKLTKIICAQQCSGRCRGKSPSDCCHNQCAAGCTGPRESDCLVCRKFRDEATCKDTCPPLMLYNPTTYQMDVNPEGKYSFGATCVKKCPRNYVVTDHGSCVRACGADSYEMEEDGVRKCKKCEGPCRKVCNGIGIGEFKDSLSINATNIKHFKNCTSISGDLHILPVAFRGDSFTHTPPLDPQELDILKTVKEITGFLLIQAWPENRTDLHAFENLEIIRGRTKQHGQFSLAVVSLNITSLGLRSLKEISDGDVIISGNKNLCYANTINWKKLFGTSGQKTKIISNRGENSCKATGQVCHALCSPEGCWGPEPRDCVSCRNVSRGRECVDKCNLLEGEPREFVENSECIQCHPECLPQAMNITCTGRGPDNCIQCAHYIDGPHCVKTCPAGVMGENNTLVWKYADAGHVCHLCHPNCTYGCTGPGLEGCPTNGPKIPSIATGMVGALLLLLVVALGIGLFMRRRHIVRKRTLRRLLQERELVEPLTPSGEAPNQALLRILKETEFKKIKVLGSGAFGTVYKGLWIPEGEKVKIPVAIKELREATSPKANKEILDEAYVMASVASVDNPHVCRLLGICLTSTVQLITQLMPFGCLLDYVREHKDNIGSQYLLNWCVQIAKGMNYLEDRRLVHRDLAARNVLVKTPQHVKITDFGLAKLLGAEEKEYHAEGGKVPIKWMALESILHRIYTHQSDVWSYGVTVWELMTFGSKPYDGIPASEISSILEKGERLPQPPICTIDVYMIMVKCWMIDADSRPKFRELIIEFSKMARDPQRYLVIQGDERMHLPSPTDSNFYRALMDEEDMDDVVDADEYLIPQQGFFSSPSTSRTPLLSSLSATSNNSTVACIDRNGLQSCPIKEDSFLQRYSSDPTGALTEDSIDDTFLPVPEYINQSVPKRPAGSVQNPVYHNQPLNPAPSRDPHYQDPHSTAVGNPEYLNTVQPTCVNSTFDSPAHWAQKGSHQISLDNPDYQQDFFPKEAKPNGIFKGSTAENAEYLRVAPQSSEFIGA
T6 sequence (P00533 with tags, fused parts or gaps INS770SVD): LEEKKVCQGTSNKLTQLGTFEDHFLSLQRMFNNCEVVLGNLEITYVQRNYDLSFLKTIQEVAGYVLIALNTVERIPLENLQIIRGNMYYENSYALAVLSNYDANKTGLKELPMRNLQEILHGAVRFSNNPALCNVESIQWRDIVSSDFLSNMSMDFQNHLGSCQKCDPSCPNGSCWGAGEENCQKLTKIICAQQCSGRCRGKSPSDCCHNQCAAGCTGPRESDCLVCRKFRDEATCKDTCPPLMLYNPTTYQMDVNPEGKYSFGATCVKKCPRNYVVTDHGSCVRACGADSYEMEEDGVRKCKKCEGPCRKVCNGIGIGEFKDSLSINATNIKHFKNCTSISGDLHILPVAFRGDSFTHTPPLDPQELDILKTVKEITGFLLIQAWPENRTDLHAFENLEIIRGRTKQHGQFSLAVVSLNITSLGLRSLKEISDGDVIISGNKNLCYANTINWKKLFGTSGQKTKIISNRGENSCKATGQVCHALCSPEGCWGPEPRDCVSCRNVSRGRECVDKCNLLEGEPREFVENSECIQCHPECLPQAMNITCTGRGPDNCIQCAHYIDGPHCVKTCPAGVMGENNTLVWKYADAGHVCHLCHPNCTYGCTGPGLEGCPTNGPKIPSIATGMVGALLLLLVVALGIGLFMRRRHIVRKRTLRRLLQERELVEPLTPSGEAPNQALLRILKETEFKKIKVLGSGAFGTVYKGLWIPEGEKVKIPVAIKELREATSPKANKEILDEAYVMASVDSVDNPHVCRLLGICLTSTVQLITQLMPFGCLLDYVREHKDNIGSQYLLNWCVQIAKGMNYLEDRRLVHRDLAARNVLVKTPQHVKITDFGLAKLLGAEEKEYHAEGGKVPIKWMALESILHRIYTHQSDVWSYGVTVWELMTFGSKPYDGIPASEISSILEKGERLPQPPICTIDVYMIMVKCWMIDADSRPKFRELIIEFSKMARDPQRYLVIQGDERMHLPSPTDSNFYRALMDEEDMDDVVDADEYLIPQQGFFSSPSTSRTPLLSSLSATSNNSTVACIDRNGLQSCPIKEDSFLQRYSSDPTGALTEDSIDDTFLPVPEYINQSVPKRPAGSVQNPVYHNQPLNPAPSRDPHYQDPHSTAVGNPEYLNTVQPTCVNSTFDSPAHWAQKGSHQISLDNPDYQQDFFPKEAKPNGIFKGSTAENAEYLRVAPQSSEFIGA
T8 sequence (P00533 with tags, fused parts or gaps INS770NPG): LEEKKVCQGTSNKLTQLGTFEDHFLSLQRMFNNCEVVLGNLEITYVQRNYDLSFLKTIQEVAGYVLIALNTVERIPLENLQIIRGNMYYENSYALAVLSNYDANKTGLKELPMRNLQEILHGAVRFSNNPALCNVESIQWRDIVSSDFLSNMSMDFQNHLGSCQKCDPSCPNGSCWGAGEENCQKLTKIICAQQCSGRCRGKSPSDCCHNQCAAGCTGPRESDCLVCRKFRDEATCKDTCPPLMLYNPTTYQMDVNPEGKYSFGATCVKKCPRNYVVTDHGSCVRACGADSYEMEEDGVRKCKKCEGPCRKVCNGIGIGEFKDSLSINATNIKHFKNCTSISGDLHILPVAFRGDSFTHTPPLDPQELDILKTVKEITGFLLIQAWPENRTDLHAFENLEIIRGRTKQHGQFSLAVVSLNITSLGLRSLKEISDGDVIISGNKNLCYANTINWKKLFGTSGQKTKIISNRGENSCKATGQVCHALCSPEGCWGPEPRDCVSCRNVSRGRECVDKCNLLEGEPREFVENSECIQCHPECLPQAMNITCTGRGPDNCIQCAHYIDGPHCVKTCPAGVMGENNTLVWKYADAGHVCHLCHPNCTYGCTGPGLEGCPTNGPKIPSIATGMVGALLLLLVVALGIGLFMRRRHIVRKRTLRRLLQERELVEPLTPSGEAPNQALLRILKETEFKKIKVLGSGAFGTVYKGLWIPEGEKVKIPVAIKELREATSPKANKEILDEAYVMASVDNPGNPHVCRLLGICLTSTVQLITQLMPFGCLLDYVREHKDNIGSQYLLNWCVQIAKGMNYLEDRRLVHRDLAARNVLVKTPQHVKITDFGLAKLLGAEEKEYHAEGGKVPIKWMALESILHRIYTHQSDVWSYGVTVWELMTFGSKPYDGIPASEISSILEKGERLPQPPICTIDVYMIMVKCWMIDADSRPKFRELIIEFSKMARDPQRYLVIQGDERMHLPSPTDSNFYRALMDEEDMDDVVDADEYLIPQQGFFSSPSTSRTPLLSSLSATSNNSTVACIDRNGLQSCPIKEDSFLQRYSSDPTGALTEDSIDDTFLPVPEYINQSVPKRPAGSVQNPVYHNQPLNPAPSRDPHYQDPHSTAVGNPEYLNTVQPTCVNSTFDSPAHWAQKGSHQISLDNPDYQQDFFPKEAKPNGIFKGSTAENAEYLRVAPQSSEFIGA
T2 sequence (P00533 25-1210 C797S/L858R): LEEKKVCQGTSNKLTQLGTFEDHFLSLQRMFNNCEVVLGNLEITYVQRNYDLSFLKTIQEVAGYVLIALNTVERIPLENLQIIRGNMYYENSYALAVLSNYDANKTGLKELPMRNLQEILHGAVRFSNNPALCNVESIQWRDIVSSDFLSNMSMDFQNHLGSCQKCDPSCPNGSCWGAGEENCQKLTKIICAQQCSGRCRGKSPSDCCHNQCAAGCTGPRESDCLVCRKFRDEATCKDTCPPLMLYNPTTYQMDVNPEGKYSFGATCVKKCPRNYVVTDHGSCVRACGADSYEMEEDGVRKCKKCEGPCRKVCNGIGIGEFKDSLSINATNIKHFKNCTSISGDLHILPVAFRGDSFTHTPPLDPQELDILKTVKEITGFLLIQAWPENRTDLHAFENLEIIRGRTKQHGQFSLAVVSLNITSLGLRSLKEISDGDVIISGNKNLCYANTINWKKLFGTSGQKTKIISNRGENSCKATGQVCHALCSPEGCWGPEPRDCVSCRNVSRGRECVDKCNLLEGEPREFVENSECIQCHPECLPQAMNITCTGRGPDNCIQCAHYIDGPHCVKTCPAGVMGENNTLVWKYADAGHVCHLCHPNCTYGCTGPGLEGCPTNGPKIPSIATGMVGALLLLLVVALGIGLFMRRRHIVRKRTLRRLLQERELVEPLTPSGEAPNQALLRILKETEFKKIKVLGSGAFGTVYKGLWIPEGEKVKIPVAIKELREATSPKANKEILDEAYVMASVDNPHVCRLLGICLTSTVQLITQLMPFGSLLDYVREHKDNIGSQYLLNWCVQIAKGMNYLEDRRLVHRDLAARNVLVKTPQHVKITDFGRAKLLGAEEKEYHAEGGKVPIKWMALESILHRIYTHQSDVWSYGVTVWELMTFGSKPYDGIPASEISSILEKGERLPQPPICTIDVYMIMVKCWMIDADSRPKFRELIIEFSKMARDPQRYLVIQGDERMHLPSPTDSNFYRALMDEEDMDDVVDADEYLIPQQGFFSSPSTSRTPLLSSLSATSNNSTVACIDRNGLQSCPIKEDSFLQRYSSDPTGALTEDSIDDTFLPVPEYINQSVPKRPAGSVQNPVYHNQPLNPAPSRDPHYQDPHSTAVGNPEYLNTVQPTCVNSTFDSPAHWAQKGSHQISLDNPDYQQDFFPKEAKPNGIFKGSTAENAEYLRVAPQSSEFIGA

COCC[C@H]1CNC(=O)c2c1[nH]c(-c1ccncn1)c2Nc1cccc(Cl)c1OC [445b]
6.00 to 7.00: [5] | [7] | [8]
< 6.00: EGFR WT (Ba/F3 cells)
not listed: EGFR (CUTO14 cells) | [10]
> 7.00: all other assays above

COCC[C@H]1CNC(=O)c2c1[nH]c(-c1ccnc(C)n1)c2Nc1cccc(F)c1OC [453b]
6.00 to 7.00: EGFR WT (Ba/F3 cells)
not listed: EGFR L858R (Ba/F3 cells) [1] | [4] | [8]
> 7.00: all other assays above

COCC[C@@H]1CNC(=O)c2c1[nH]c(-c1ccncn1)c2Nc1cccc(F)c1OC [Compound 447a]
6.00 to 7.00: EGFR WT (Ba/F3 cells)
not listed: EGFR (CUTO14 cells) | [10]
> 7.00: all other assays above

COc1c(Cl)cccc1Nc1c(-c2ccnc(N)n2)[nH]c2c1C(=O)NC[C@H]2C[C@H]1COCCO1 [Compound 571, (7R)-2-(2-aminopyrimidin-4-yl)-3-[(3-chloro-2-methoxyphenyl)amino]-7-[(2S)-1,4-dioxan-2-ylmethyl]-1H,5H,6H,7H-pyrrolo[3,2-c]pyridin-4-one]
6.00 to 7.00: EGFR WT (Ba/F3 cells)
not listed: EGFR L858R (Ba/F3 cells) [1] | [2] | [4] | [6]
> 7.00: all other assays above

COc1c(Cl)cccc1Nc1c(-c2ccncc2F)[nH]c2c1C(=O)NCC21CCOCC1 [Compound 778, 3′-[(3-chloro-2-methoxyphenyl)amino]-2′-(3-fluoropyridin-4-yl)-5′,6′-dihydro-1′H-spiro[oxane-4,7′-pyrrolo[3,2-c]pyridin]-4′-one]
< 6.00: EGFR WT (Ba/F3 cells)
6.00 to 7.00: [2] | [5] | [7] | [8]
not listed: EGFR (CUTO14 cells) | [10]
> 7.00: all other assays above

COc1c(Cl)cc(F)cc1Nc1c(-c2ccnc(C)n2)[nH]c2c1C(=O)NC[C@@H]2C[C@@H]1COCCO1 [compound 651]
> 7.00: [2] | [5] | EGFR (CUTO14 cells) | [6] | [7] | [10]
6.00 to 7.00: EGFR WT (Ba/F3 cells)

COc1c(Cl)cccc1Nc1c(-c2ccncc2F)[nH]c2c(C[C@@H]3COCCO3)c[nH]c(=O)c12 [compound 657]
6.00 to 7.00: EGFR WT (Ba/F3 cells)
not listed: EGFR L858R (Ba/F3 cells) [1] | [4] | [8]
> 7.00: all other assays above

COc1c(F)cccc1Nc1c(-c2ccnc(C)n2)[nH]c2c(C[C@@H]3COCCO3)c[nH]c(=O)c12 [compound 658]
6.00 to 7.00: EGFR WT (Ba/F3 cells)
not listed: EGFR L858R (Ba/F3 cells) [1] | [4] | [8]
> 7.00: all other assays above
